According to patent publication US20030032000A1, “Method for analyzing cellular events” (Signature BioScience Inc., priority 2001, published 2003):

Columns and labels:
CHOk1 cells = assay: MCS cellular activity assay in un-transfected CHOk1 wild-type cells; details: various concentrations of carbachol, signal integrated over 50 MHz to 1 GHz
calcium flux = assay: MCS detection of calcium flux modifiers in wild-type and transfected cells; format: cell-based, Chinese Hampster
Protocol: Ability to detect other calcium flux modifies was tested using ionomycin (an ionophore).

| SMILES | integrated MCS signal over time versus buffer (CHOk1 cells) | inhibition of ionomycin effect, MCS (calcium flux) |
| --- | --- | --- |
| C[N+](C)(C)CCOC(N)=O [carbachol] | essentially no change in signal over time | – |
| C/C=C(/C)C(=O)O[C@H]1C(C)=C2[C@H]([C@@H]1OC(=O)CCCCCCC)[C@@](C)(OC(C)=O)C[C@H](OC(=O)CCC)[C@@]1(O)[C@H]2OC(=O)[C@@]1(C)O [thapsigargin] | – | inhibit ionomycin |
